From ChEMBL document CHEMBL1133210, “Synthesis of tetrakis(multifluoro-4-pyridyl)porphin derivatives as acetylcholinesterase inhibitors” (Bioorg Med Chem Lett, 2000)

Tested on: Gallus gallus
Experiment: Compound was tested in vivo for antiangiogenic activity (10 microg dose/ egg) on chorioallantoic membrane of growing chick embryos
Format: functional

Structure (SMILES) | Inhibition
C[n+]1ccc(-c2c3nc(c(-c4cc[n+](C)cc4F)c4ccc([nH]4)c(-c4cc[n+](C)cc4F)c4ccc([nH]4)c(-c4cc[n+](C)cc4F)c4nc2C=C4)C=C3)c(F)c1.Cc1ccc(S(=O)(=O)[O-])cc1.Cc1ccc(S(=O)(=O)[O-])cc1.Cc1ccc(S(=O)(=O)[O-])cc1.Cc1ccc(S(=O)(=O)[O-])cc1 | 60%

Target: Acetylcholinesterase (Electrophorus electricus, UniProt O42275)
Experiment: Inhibition constant (Ki) against electric eel Acetylcholinesterase as Km/Vmax versus inhibitor concentration replot

Chain of Acetylcholinesterase (O42275 whole entry): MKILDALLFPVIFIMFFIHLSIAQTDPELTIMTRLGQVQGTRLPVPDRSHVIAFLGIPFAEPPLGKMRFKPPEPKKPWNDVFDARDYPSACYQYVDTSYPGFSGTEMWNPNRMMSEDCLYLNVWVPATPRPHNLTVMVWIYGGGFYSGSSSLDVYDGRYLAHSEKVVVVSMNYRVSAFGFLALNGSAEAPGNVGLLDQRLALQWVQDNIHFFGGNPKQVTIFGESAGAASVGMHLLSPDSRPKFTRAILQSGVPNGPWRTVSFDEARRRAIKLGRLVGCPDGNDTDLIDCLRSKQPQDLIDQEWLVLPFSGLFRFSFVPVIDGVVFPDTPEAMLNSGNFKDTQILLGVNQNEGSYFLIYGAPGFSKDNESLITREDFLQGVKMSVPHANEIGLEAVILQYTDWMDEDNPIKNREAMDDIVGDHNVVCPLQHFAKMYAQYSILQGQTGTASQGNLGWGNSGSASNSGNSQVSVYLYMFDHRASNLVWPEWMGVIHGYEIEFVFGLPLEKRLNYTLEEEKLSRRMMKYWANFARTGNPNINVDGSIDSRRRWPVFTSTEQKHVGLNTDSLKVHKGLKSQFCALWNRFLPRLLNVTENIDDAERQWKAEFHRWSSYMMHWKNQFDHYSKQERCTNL

Structure (SMILES) | Ki
Fc1cccc(F)c1-c1c2nc(c(-c3c(F)cccc3F)c3ccc([nH]3)c(-c3c(F)cccc3F)c3ccc([nH]3)c(-c3c(F)cccc3F)c3nc1C=C3)C=C2 | 0.005 µM
Fc1ccccc1-c1c2nc(c(-c3ccccc3F)c3ccc([nH]3)c(-c3ccccc3F)c3ccc([nH]3)c(-c3ccccc3F)c3nc1C=C3)C=C2 | 50.9 µM
Oc1cccc(-c2c3nc(c(-c4cccc(O)c4)c4ccc([nH]4)c(-c4cccc(O)c4)c4ccc([nH]4)c(-c4cccc(O)c4)c4nc2C=C4)C=C3)c1 | 29.6 µM
Fc1ccc(-c2c3nc(c(-c4ccc(F)cc4F)c4ccc([nH]4)c(-c4ccc(F)cc4F)c4ccc([nH]4)c(-c4ccc(F)cc4F)c4nc2C=C4)C=C3)c(F)c1 | 0.012 µM
Fc1nc(F)c(F)c(-c2c3nc(c(-c4c(F)c(F)nc(F)c4F)c4ccc([nH]4)c(-c4c(F)c(F)nc(F)c4F)c4ccc([nH]4)c(-c4c(F)c(F)nc(F)c4F)c4nc2C=C4)C=C3)c1F | 7.29 µM
Fc1cnc(F)c(F)c1-c1c2nc(c(-c3c(F)cnc(F)c3F)c3ccc([nH]3)c(-c3c(F)cnc(F)c3F)c3ccc([nH]3)c(-c3c(F)cnc(F)c3F)c3nc1C=C3)C=C2 | 2.85 µM
Oc1ccccc1-c1c2nc(c(-c3ccccc3O)c3ccc([nH]3)c(-c3ccccc3O)c3ccc([nH]3)c(-c3ccccc3O)c3nc1C=C3)C=C2 | 18.3 µM
Fc1cccc(-c2c3nc(c(-c4cccc(F)c4)c4ccc([nH]4)c(-c4cccc(F)c4)c4ccc([nH]4)c(-c4cccc(F)c4)c4nc2C=C4)C=C3)c1 | 9.7 µM
Oc1ccc(O)c(-c2c3nc(c(-c4cc(O)ccc4O)c4ccc([nH]4)c(-c4cc(O)ccc4O)c4ccc([nH]4)c(-c4cc(O)ccc4O)c4nc2C=C4)C=C3)c1 | 2.5 µM
C[n+]1ccc(-c2c3nc(c(-c4cc[n+](C)cc4F)c4ccc([nH]4)c(-c4cc[n+](C)cc4F)c4ccc([nH]4)c(-c4cc[n+](C)cc4F)c4nc2C=C4)C=C3)c(F)c1.Cc1ccc(S(=O)(=O)[O-])cc1.Cc1ccc(S(=O)(=O)[O-])cc1.Cc1ccc(S(=O)(=O)[O-])cc1.Cc1ccc(S(=O)(=O)[O-])cc1 | 3.06 µM
Fc1cnccc1-c1c2nc(c(-c3ccncc3F)c3ccc([nH]3)c(-c3ccncc3F)c3ccc([nH]3)c(-c3ccncc3F)c3nc1C=C3)C=C2 | 5.08 µM
